PubChem BioAssay AID330 (DTP/NCI, 2004)
“And” between values parts separate entries of the source, which are not always exact repeats. Identical values can stand only once. Inconclusive results and toxic doses are left out. Rule for the calls: active = survival T/C of 150% or more; inactive = T/C below 125% in these data.

System: P388 leukemia ip, CD2F1 mice, survival T/C
Test: NCI In Vivo Anticancer Drug Screen. Data for tumor model P388 Leukemia (intraperitoneal) in CD2F1 (CDF1) mice
Conditions: endpoint: median survival time, higher = longer survival
Method in brief: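 Mice carrying the transplanted tumor received test compound or vehicle. Survival was recorded in each group, and the value is the treated-group measurement divided by that of the vehicle-treated control group.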

[1] = dose: 100.0 mg/kg/injection, schedule: Q01DX001 (ip), vehicle: saline with Tween-80
[2] = dose: 200.0 mg/kg/injection, schedule: Q01DX001 (ip), vehicle: saline with Tween-80
[3] = dose: 60.0 mg/kg/injection, schedule: Q01DX005 (ip), vehicle: Klucel (hydroxypropylcellulose) (HPC)
[4] = dose: 120.0 mg/kg/injection, schedule: Q01DX005 (ip), vehicle: Klucel (hydroxypropylcellulose) (HPC)
[5] = dose: 240.0 mg/kg/injection, schedule: Q01DX005 (ip), vehicle: Klucel (hydroxypropylcellulose) (HPC)
[6] = dose: 50.0 mg/kg/injection, schedule: Q01DX005 (ip), vehicle: saline with Tween-80
[7] = dose: 100.0 mg/kg/injection, schedule: Q01DX005 (ip), vehicle: saline with Tween-80
[8] = dose: 200.0 mg/kg/injection, schedule: Q01DX005 (ip), vehicle: saline with Tween-80
[9] = dose: 50.0 mg/kg/injection, schedule: Q01DX009 (ip), vehicle: saline
[10] = dose: 100.0 mg/kg/injection, schedule: Q01DX009 (ip), vehicle: saline
[11] = dose: 200.0 mg/kg/injection, schedule: Q01DX009 (ip), vehicle: saline
[12] = dose: 400.0 mg/kg/injection, schedule: Q01DX009 (ip), vehicle: saline
[13] = dose: 50.0 mg/kg/injection, schedule: Q01DX009 (ip), vehicle: Klucel (hydroxypropylcellulose) (HPC)
[14] = dose: 100.0 mg/kg/injection, schedule: Q01DX009 (ip), vehicle: Klucel (hydroxypropylcellulose) (HPC)
[15] = dose: 200.0 mg/kg/injection, schedule: Q01DX009 (ip), vehicle: Klucel (hydroxypropylcellulose) (HPC)
[16] = dose: 60.0 mg/kg/injection, schedule: Q01DX005 (ip), vehicle: saline with Tween-80
[17] = dose: 120.0 mg/kg/injection, schedule: Q01DX005 (ip), vehicle: saline with Tween-80
[18] = dose: 240.0 mg/kg/injection, schedule: Q01DX005 (ip), vehicle: saline with Tween-80
[19] = dose: 6.25 mg/kg/injection, schedule: Q01DX009 (ip), vehicle: saline with Tween-80
[20] = dose: 12.5 mg/kg/injection, schedule: Q01DX009 (ip), vehicle: saline with Tween-80
[21] = dose: 50.0 mg/kg/injection, schedule: Q01DX009 (ip), vehicle: saline with Tween-80
[22] = dose: 200.0 mg/kg/injection, schedule: Q01DX009 (ip), vehicle: saline with Tween-80
[23] = dose: 100.0 mg/kg/injection, schedule: Q04DX003 (ip), vehicle: saline with Tween-80
[24] = dose: 200.0 mg/kg/injection, schedule: Q04DX003 (ip), vehicle: saline with Tween-80

Measured: T/C

N#Cc1c(C(=O)NN)c2c(-c3ccccc3)n[nH]c(=O)c2[nH]c1=O
inactive: [1] 100 % of control | [2] 91 % of control

CC(=O)OC(C)(C)/C=C/C(=O)[C@](C)(O)[C@H]1[C@H](O)C[C@@]2(C)[C@@H]3CC=C4[C@@H](C[C@H](O)[C@H](O)C4(C)C)[C@]3(C)C(=O)C[C@]12C
inactive: dose: 5.0 mg/kg/injection, schedule: Q01DX009 (ip), vehicle: saline with Tween-80 107 % of control | dose: 10.0 mg/kg/injection, schedule: Q01DX009 (ip), vehicle: saline with Tween-80 107 % of control | dose: 20.0 mg/kg/injection, schedule: Q01DX009 (ip), vehicle: saline with Tween-80 112 % of control

CCOC(=O)CCC(=O)Oc1cccc2c1C(=O)c1c(OC(=O)CCC(=O)OCC)cccc1C2=O
inactive: [3] 91 % of control | [4] 97 % of control | [5] 91 % of control

COc1ccc(C2SCC(=O)N2c2nncs2)c(OC)c1 (centres undefined)
inactive: [3] 99 % of control | [4] 106 % of control | [5] 110 % of control

c1ccc2oc(C34OC5CC(CC(C5)O3)O4)nc2c1
inactive: [1] 101 % of control | [2] 99 % of control | dose: 400.0 mg/kg/injection, schedule: Q01DX001 (ip), vehicle: saline with Tween-80 100 % of control

COc1cc2c(cc1OC)C(C)P(C)(=O)CC2=O (centres undefined)
inactive: [6] 96 % of control and 99 % of control | [7] 102 % of control and 101 % of control | [8] 102 % of control and 99 % of control

C=C1C(=O)C23C(OC(=O)CCCCCCCCCCCCC)C1CCC2C12COC3(O)C(O)C1C(C)(C)CCC2O (centres undefined)
inactive: dose: 3.75 mg/kg/injection, schedule: Q01DX009 (ip), vehicle: saline with Tween-80 104 % of control | dose: 7.5 mg/kg/injection, schedule: Q01DX009 (ip), vehicle: saline with Tween-80 109 % of control | dose: 15.0 mg/kg/injection, schedule: Q01DX009 (ip), vehicle: saline with Tween-80 112 % of control

C/C=C1/CN2C3CC1C1(C(=O)OC)C(OC(C)=O)[C@]4(C[C@H]21)c1ccccc1N(C)C34 (some centres undefined)
inactive: dose: 3.0 mg/kg/injection, schedule: Q01DX005 (ip), vehicle: Klucel (hydroxypropylcellulose) (HPC) 94 % of control | dose: 6.0 mg/kg/injection, schedule: Q01DX005 (ip), vehicle: Klucel (hydroxypropylcellulose) (HPC) 100 % of control | dose: 12.0 mg/kg/injection, schedule: Q01DX005 (ip), vehicle: Klucel (hydroxypropylcellulose) (HPC) 98 % of control | dose: 24.0 mg/kg/injection, schedule: Q01DX005 (ip), vehicle: Klucel (hydroxypropylcellulose) (HPC) 106 % of control

OCCCN1CCN(CCCO)CC1
inactive: dose: 12.5 mg/kg/injection, schedule: Q01DX009 (ip), vehicle: saline 103 % of control and 96 % of control | dose: 25.0 mg/kg/injection, schedule: Q01DX009 (ip), vehicle: saline 97 % of control and 98 % of control | [9] 92 % of control and 97 % of control | [10] 101 % of control and 95 % of control | [11] 100 % of control and 106 % of control | [12] 103 % of control and 91 % of control

CCOC(=O)C(=O)Nc1ccccc1C#N
inactive: dose: 50.0 mg/kg/injection, schedule: Q01DX009 (ip), vehicle: saline + alcohol 105 % of control | dose: 100.0 mg/kg/injection, schedule: Q01DX009 (ip), vehicle: saline + alcohol 99 % of control | dose: 200.0 mg/kg/injection, schedule: Q01DX009 (ip), vehicle: saline + alcohol 101 % of control

CCCCS(=O)(=O)C(C)(Cl)C(=O)OCC (centres undefined)
inactive: dose: 25.0 mg/kg/injection, schedule: Q01DX001 (ip), vehicle: saline with Tween-80 100 % of control | dose: 50.0 mg/kg/injection, schedule: Q01DX001 (ip), vehicle: saline with Tween-80 100 % of control | [1] 106 % of control and 93 % of control

CC12CCC3(CC(=O)C1CCC2O)OCCO3 (centres undefined)
inactive: [13] 107 % of control | [14] 103 % of control | [15] 116 % of control

Cc1nn(-c2nc(-c3ccccc3)cs2)c(C)c1C
inactive: [13] 98 % of control | [14] 96 % of control | [15] 101 % of control

O=c1cc(-c2ccccc2)nc2cc(-c3ccco3)[nH]n12
inactive: [16] 102 % of control | [17] 107 % of control | [18] 111 % of control

O=[N+]([O-])c1ccc(Cl)c(S(=O)(=O)Cl)c1
inactive: [6] 97 % of control | [7] 88 % of control | [8] 92 % of control

CS/C(=N/N=C(\C)c1ccccn1)[Se][Se]/C(=N/N=C(\C)c1ccccn1)SC
inactive: [19] 90 % of control | [20] 97 % of control | [21] 93 % of control | [22] 93 % of control

O=c1[nH]c2ccccc2nc1C1(F)CCCC1
inactive: [16] 98 % of control | [17] 92 % of control | [18] 89 % of control

CC(=O)OC(C[N+](=O)[O-])C(Cl)(Cl)Cl (centres undefined)
inactive: [19] 104 % of control | [20] 109 % of control | dose: 25.0 mg/kg/injection, schedule: Q01DX009 (ip), vehicle: saline with Tween-80 100 % of control

COC(=O)[C@@H]1[C@H](O)[C@H](C)[C@H](O)[C@H](C)/C=C\C=C(C)C(=O)Nc2c(C)c(OC(C)=O)c3c(c2O)C(=O)C(C)=C2OCOC(=C23)C(C)=C[C@@](C)(O)[C@H](O)[C@@H](C)[C@H]1OC(C)=O
inactive: [9] 96 % of control | [10] 109 % of control and 96 % of control | [11] 99 % of control and 122 % of control | [12] 100 % of control

O=[N+]([O-])c1cc(Cl)ccc1-c1ccccc1
inactive: [14] 87 % of control | [15] 93 % of control | dose: 400.0 mg/kg/injection, schedule: Q01DX009 (ip), vehicle: Klucel (hydroxypropylcellulose) (HPC) 101 % of control

CNc1ccccc1C(=O)NNC(=O)Nc1ccc(SC)cc1
inactive: [21] 103 % of control | dose: 100.0 mg/kg/injection, schedule: Q01DX009 (ip), vehicle: saline with Tween-80 97 % of control | [22] 100 % of control

CCOC(=O)CN=CC1CCC=CO1 (centres undefined)
inactive: [23] 100 % of control | [24] 100 % of control | dose: 400.0 mg/kg/injection, schedule: Q04DX003 (ip), vehicle: saline with Tween-80 100 % of control

N#Cc1ccc(NC(=O)CCCC(=O)Nc2ccc(C#N)c(C#N)c2)cc1C#N
inactive: [13] 97 % of control | [14] 94 % of control | [15] 96 % of control

Cc1ccc2c(c1)C=CC(C#N)N2C(=O)OCc1ccccc1 (centres undefined)
inactive: [23] 90 % of control | [24] 95 % of control

O=C1N(c2ccccc2)C(=O)C2(N(c3ccccc3)CCN2c2ccccc2)N1c1ccccc1
inactive: dose: 100.0 mg/kg/injection, schedule: Q04DX002 (ip), vehicle: saline with Tween-80 88 % of control | dose: 200.0 mg/kg/injection, schedule: Q04DX002 (ip), vehicle: saline with Tween-80 89 % of control | dose: 400.0 mg/kg/injection, schedule: Q04DX002 (ip), vehicle: saline with Tween-80 88 % of control

CCCCCCN(CCCCCC)C(C)C(=O)c1ccc2cc(Br)c3ccccc3c2c1 (centres undefined)
inactive: [6] 91 % of control | [7] 94 % of control | [8] 94 % of control

CC(C)[C@H](C)C(=O)C1OCOC(C2CC(=O)NC(=O)C2)[C@@H]1O (some centres undefined)
inactive: dose: 0.01 mg/kg/injection, schedule: Q01DX009 (ip), vehicle: distilled water + alcohol 102 % of control | dose: 0.03 mg/kg/injection, schedule: Q01DX009 (ip), vehicle: distilled water + alcohol 109 % of control | dose: 0.06 mg/kg/injection, schedule: Q01DX009 (ip), vehicle: distilled water + alcohol 109 % of control | dose: 0.12 mg/kg/injection, schedule: Q01DX009 (ip), vehicle: distilled water + alcohol 100 % of control

Cc1c2ccncc2c(C)c2c1[nH]c1cc(O)ccc12
inactive: dose: 3.13 mg/kg/injection, schedule: Q04DX003 (ip), vehicle: distilled water + Tween-80 104 % of control | dose: 6.25 mg/kg/injection, schedule: Q04DX003 (ip), vehicle: distilled water + Tween-80 108 % of control and 111 % of control | dose: 12.5 mg/kg/injection, schedule: Q04DX003 (ip), vehicle: distilled water + Tween-80 122 % of control
